The results in this text go back to patent US12612395B2, “Rocaglate derivatives and uses thereof” (TRUSTEES OF BOSTON UNIVERSITY, priority 2023, dated 2026).

This assay has as its system GBM0308 stem cells. As to the kind of experiment: RNA sequencing of treated GBM CSCs. Particulars: 0.1 μM and 1 μM, 12 h and 24 h. The class given is cell-based, human. The source says:
To understand the transcriptomic changes underlying (−)-20 effects on GBM CSCs, the inventors performed RNA sequencing experiments in these cells. […] Furthermore, upon compound treatment, the inventors observed the downregulation of several hallmark gene sets associated with critical cellular processes, including apoptosis, glycolysis, MTORC1 signaling, NOTCH signaling, epithelial-mesenchymal transition (EMT), and angiogenesis (FIGS. 5D and 18A). […] This observation emphasizes the complexity of cell death mechanisms and the potential origins of selectivity of (−)-20 against CSCs. […] (FIG. 5E).
RNA Sequencing and Analysis: GBM0308 cells cultured in NBE medium were treated with compound (−)-20 at concentrations of 0.1 μM, 1 μM and DMSO. At 12 h and 24 h timepoints, total RNA was extracted using RNeasy mini kit (Qiagen) as per the manufacturer's instruction. Preparation of the RNA library and transcriptome sequencing were conducted by Novogene. […]

Consider `COc1cc(OC)c2c(c1)O[C@@]1(c3ccc(Br)cc3)[C@H](c3ccccc3)[C@@H](C(=O)NS(=O)(=O)N(C)C)[C@@H](O)[C@@]21O` [(−)-20, (1R,2R,3S,3aR,8bS)-3a-(4-bromophenyl)-N—(N,N-dimethylsulfamoyl)-1,8b-dihydroxy-6,8-dimethoxy-3-phenyl-2,3,3a,8b-tetrahydro-1H-cyclopenta[b]benzofuran-2-carboxamide], for which the “expression of genes involved in stem cell maintenance and survival (NOTCH1, NOTCH2, NOTCH3, SALL3, SOX2)” value is “downregulated”.
